From patent US20250282776A1, “Bicyclic TLR7 Agonists and Uses Thereof” (Bristol-Myers Squibb Company, priority 2024, published 2025)

How the values were obtained:
human TLR8 (hTLR8) = biological target: T1, human TLR8 (hTLR8) (Homo sapiens, UniProt Q9NR97); assay: Human TLR8 agonist activity assay (measured in a similar manner); type: cell-based; settings: HEK-Blue TLR cells, SEAP reporter, measured in a similar manner to TLR7; some values average of multiple measurements
T1 construct: expressed in transfected cells
T1 sequence (Q9NR97 27-1041): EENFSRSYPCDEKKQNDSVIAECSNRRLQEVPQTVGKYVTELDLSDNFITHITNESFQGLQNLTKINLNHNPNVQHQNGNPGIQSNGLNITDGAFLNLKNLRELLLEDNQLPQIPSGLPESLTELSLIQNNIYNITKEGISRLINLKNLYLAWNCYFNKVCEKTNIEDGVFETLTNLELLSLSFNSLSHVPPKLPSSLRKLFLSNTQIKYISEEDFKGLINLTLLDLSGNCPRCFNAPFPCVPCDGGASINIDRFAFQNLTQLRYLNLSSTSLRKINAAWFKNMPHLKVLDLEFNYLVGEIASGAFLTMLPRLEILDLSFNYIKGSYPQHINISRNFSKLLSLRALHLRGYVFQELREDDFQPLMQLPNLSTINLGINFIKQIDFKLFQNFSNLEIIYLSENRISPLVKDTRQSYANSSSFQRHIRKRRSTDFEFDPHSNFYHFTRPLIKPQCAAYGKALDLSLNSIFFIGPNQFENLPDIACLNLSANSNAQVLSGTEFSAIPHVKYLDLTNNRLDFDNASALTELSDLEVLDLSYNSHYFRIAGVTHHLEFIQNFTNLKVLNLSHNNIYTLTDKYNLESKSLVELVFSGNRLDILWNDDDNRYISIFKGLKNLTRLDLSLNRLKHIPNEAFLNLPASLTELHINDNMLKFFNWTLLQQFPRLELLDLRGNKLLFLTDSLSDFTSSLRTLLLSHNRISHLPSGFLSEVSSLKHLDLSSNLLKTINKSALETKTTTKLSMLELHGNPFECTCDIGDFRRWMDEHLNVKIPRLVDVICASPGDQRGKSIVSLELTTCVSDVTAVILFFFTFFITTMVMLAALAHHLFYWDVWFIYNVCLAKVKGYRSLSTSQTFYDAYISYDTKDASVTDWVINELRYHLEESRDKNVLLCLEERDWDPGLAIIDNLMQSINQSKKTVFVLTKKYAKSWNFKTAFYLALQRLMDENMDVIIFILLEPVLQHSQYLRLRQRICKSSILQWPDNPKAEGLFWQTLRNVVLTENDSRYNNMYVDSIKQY
Procedure: (§1) This procedure describes a method for assaying human TLR7 (hTLR7) and human TLR8 (hTLR8) agonist activity of the compounds disclosed herein.
HEK-Blue™ TLR7 cells were added to each well of a 384-well tissue-culture plate (15,000 cells per well) and incubated 16-18 h at 37° C., 5% CO2. Compounds (100 nL) were dispensed into wells containing the HEK-Blue™ TLR cells and the treated cells were incubated at 37° C., 5% CO2. After 18 h, ten microliters 5 of freshly prepared Quanti-Blue™ reagent (Invivogen) was added to each well and incubated for 30 min (37° C., […]). SLAP levels were measured using an Envision plate reader (OD=620 nm). […] Some of the reported activities were the average of multiple measurements.
TLR8 activity was measured in a similar manner.

human TLR7 (hTLR7) = biological target: T2, human TLR7 (hTLR7) (Homo sapiens, UniProt Q9NYK1); assay: Human TLR7 agonist activity assay (HEK-Blue TLR7 SEAP reporter); type: cell-based; settings: HEK-Blue TLR7 cells, 18 h incubation, Quanti-Blue, OD 620 nm, some values average of multiple measurements
T2 construct: host or cells: HEK-Blue TLR7 cells (engineered human embryonic kidney cells)
T2 sequence (Q9NYK1 27-1049): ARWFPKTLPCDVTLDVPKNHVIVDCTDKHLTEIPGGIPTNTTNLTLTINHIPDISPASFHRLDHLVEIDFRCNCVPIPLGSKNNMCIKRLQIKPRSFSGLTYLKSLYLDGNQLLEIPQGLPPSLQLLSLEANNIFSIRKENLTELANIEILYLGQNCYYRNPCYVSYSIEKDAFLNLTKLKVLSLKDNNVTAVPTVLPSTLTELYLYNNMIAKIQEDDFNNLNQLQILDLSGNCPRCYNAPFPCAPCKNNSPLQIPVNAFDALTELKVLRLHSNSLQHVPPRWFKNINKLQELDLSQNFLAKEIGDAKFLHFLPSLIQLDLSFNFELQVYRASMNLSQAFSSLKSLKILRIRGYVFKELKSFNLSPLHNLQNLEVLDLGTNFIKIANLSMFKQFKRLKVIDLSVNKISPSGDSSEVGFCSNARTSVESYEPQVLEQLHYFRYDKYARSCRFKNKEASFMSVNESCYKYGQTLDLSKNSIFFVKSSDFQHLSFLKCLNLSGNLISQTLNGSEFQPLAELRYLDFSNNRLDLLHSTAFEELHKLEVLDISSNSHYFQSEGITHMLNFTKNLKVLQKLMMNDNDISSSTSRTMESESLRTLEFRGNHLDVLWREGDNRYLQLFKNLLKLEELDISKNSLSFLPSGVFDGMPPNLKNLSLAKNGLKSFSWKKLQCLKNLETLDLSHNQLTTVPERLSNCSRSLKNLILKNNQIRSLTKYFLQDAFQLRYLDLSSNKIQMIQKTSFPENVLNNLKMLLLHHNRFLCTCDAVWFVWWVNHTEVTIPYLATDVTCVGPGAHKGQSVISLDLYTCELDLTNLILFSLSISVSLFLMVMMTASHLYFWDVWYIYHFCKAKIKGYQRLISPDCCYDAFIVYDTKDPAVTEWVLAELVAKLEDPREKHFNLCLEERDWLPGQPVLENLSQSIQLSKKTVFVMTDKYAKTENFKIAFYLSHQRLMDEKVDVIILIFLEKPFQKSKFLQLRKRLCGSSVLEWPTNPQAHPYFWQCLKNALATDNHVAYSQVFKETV
Procedure: as §1
HEK-Blue™ TLR7 cells were added to each well of a 384-well tissue-culture plate (15,000 cells per well) and incubated 16-18 h at 37° C., 5% CO2. Compounds (100 nL) were dispensed into wells containing the HEK-Blue™ TLR cells and the treated cells were incubated at 37° C., 5% CO2. After 18 h, ten microliters 5 of freshly prepared Quanti-Blue™ reagent (Invivogen) was added to each well and incubated for 30 min (37° C., […]). SLAP levels were measured using an Envision plate reader (OD=620 nm). The half maximal effective concentration values (ECSO; compound concentration which induced a response halfway between the assay baseline and maximum) were calculated. Some of the reported activities were the average of multiple measurements.

Row | SMILES | EC50 (human TLR8 (hTLR8)) | EC50 (human TLR7 (hTLR7))
1 | CCCCN(c1nc(N)nc2cn(Cc3ccc(CN4CCCCC4)cc3OC)nc12)C(C)CO (racemic) [Compound 49, 2-((5-amino-2-(2-methoxy-4-(piperidin-1-ylmethyl)benzyl)-2H-pyrazolo[4,3-d]pyrimidin-7-yl)(butyl)amino)propan-1-ol] | 682 nM | 385 nM
2 | CCCCN(CCO)c1nc(N)nc2cn(Cc3ccc(CNC4CCOC(C)(C)C4)cc3OC)nc12 (racemic) [Compound 103, 2-((5-Amino-2-(4-(((2,2-dimethyltetrahydro-2H-pyran-4-yl)amino)methyl)-2-methoxybenzyl)-2H-pyrazolo[4,3-d]pyrimidin-7-yl)(butyl)amino) ethan-1-ol] | 202 nM | 322 nM
3 | CCCCN(c1nc(N)nc2cn(Cc3ccc(CN4CCCCC4)cc3OC)nc12)C(C)CO (single isomer, unassigned) [Compound 49-1, 2-((5-amino-2-(2-methoxy-4-(piperidin-1-ylmethyl)benzyl)-2H-pyrazolo[4,3-d]pyrimidin-7-yl)(butyl)amino)propan-1-ol] | 949 nM | 374 nM
4 | CCCCN(c1nc(N)nc2cn(Cc3ccc(CN4CCCCC4)cc3OC)nc12)C(C)CO (single isomer, unassigned) [Compound 49-2, 2-((5-amino-2-(2-methoxy-4-(piperidin-1-ylmethyl)benzyl)-2H-pyrazolo[4,3-d]pyrimidin-7-yl)(butyl)amino)propan-1-ol] | 682 nM | 385 nM
5 | CCCCN(CCO)c1nc(N)nc2cn(Cc3ccc(CNC4CCOC(C)(C)C4)cc3OC)nc12 (single isomer, unassigned) [Compound 111, 2-((5-Amino-2-(4-(((2,2-dimethyltetrahydro-2H-pyran-4-yl)amino)methyl)-2-methoxybenzyl)-2H-pyrazolo[4,3-d]pyrimidin-7-yl)(butyl)amino) ethan-1-ol] | 453 nM | 654 nM
6 | CCCCN(CCO)c1nc(N)nc2cn(Cc3ccc(CNC4CCOC(C)(C)C4)cc3OC)nc12 (single isomer, unassigned) [Compound 112, 2-((5-Amino-2-(4-(((2,2-dimethyltetrahydro-2H-pyran-4-yl)amino)methyl)-2-methoxybenzyl)-2H-pyrazolo[4,3-d]pyrimidin-7-yl)(butyl)amino) ethan-1-ol] | 562 nM | 585 nM
7 | CCCCN(CCO)c1nc(N)nc2cn(Cc3ccc(CNC4CCOC(C)C4)cc3OC)nc12 (single isomer, unassigned) [Compound 121] | 564 nM | 1360 nM
8 | CCCCN(CCO)c1nc(N)nc2cn(Cc3ccc(CNC4CCOC(C)C4)cc3OC)nc12 (single isomer, unassigned) [Compound 122] | 189 nM | 561 nM
9 | CCCCN(CCO)c1nc(N)nc2cn(Cc3ccc(CNC4CCC4)cc3OC)nc12 [Compound 1] | 1140 nM | 1290 nM
10 | CCCCN(CCO)c1nc(N)nc2cn(Cc3ccc(CN4CCCCC4)cc3OC)nc12 [Compound 2] | 1010 nM | 1340 nM
11 | CCCCN(CCO)c1nc(N)nc2cn(Cc3ccc(CNC4CCOCC4)cc3OC)nc12 [Compound 3] | 596 nM | 970 nM
12 | CCCCN(CCO)c1nc(N)nc2cn(Cc3ccc(CN4CCCC4)cc3OC)nc12 [Compound 4] | 633 nM | 694 nM
13 | CCCCN(CCO)c1nc(N)nc2cn(Cc3ccc(CN4CC(OC)C4)cc3OC)nc12 [Compound 5] | 700 nM | 643 nM
14 | CCCCN(CCO)c1nc(N)nc2cn(Cc3ccc(CN4CC5(CC(OC)C5)C4)cc3OC)nc12 [Compound 6] | 892 nM | 680 nM
15 | CCCCN(CCO)c1nc(N)nc2cn(Cc3ccc(CNC(C)(C)C)cc3OC)nc12 [Compound 7] | 602 nM | 969 nM
16 | CCCCN(CCO)c1nc(N)nc2cn(Cc3ccc(CNCC(C)(C)O)cc3OC)nc12 [Compound 9] | 1250 nM | 1620 nM

Row | SMILES | EC50 (human TLR8 (hTLR8)) | EC50 (human TLR7 (hTLR7))
17 | CCCN(CCO)c1nc(N)nc2cn(Cc3ccc(CNC4CCC4)cc3OC)nc12 [Compound 43] | 1740 nM | 
18 | CCCCN(CCO)c1nc(N)nc2cn(Cc3ccc(CNCC4CC5(CCC5)C4)c4cccnc34)nc12 [Compound 67] | 2160 nM | 
19 | CCC[C@@H](CO)N(C)c1nc(N)nc2cn(Cc3ccc(CN4CCCC4)cc3OC)nc12 [Compound 87] | 1820 nM | 
20 | CCCCN(CCO)c1nc(N)nc2cn(Cc3cnc(CN[C@H]4C[C@H](OC)C4)cc3OC)nc12 [Compound 124] | 1870 nM | 
21 | CCCCN(CCO)c1nc(N)nc2cn(Cc3ccc(CNC4CCOC(C)C4)cc3OC)nc12 (centres unmarked) [Compound 126] | 689 nM | 
22 | CCCCN(CCO)c1nc(N)nc2cn(Cc3ccc(CNCCO)cc3C(F)F)nc12 [Compound 129] | 2710 nM | 
23 | CCCCN(CCO)c1nc(N)nc2cn(Cc3ccc(CNC4CC5(COC5)C4)cc3)nc12 [Compound 159] | 1190 nM | 
24 | CCCCN(CCO)c1nc(N)nc2cn(Cc3ccc(CNCCO)cc3)nc12 [Compound 160] | 1970 nM | 
25 | CCCCN(CCO)c1nc(N)nc2cn(Cc3ccc(CNC4(COC)CCOCC4)cc3OC)nc12 [Compound 165] | 460 nM | 
26 | CCCCN(CCO)c1nc(N)nc2cn(Cc3ccc(CNC4(C)CCC4)cc3C(F)F)nc12 [Compound 167] | 1610 nM | 
27 | CCCCN(CCO)c1nc(N)nc2cn(Cc3ccc(CNC4CCC(F)(F)CC4)c4scnc34)nc12 [Compound 203] | 2400 nM | 
28 | CCCCN(CCO)c1nc(N)nc2cn(Cc3ccc(CNC4CCOCC4)c4cn[nH]c34)nc12 [Compound 204] | 1270 nM | 
29 | CCCCN(CCO)c1nc(N)nc2cn(Cc3ccc(CN[C@H]4CCOC4)c4nccnc34)nc12 [Compound 205] | 1340 nM | 
30 | CCCCN(CCO)c1nc(N)nc2cn(Cc3ccc(CNC4CCOC(C)(C)C4)c4cn[nH]c34)nc12 (centres unmarked) [Compound 209] | 2850 nM | 
31 | CCCCN(CCO)c1nc(N)nc2cn(Cc3ccc(CNC4CCOCC4)c4ncsc34)nc12 [Compound 210] | 1860 nM | 
